Measured values reported in publication PMC12736018, “Stereoselective Cytotoxicity of Enantiopure 3,3-Dichloro-γ-lactams: Correlating In Vitro Activity with In Vivo Tolerability” (Molecules, 2025).
≈ marks a conversion by molar mass, not a printed value.

What was measured:
A431 cells [1] = experiment: NRU cell viability assay, A431; assay type: cell-based, human; settings: Homo sapiens, A-431, 24 h
Description: (§1) The murine Swiss albino fibroblast (3T3), the immortal human keratinocyte (HaCaT), the squamous cell carcinoma (A431), the human epithelial carcinoma (HeLa) and the human breast adenocarcinoma (MCF-7) cell lines were sourced from Celltec UB (Barcelona, Spain). All cells were maintained and grown in DMEM medium (4.5 g/L glucose) supplemented with 10% (v/v) FBS, 2 mM L-glutamine, 100 U/mL penicillin and 100 μg/mL streptomycin at 37 °C, 5% CO2. Cells were routinely cultured in 75 cm^2 culture flasks and were trypsinized using trypsin-EDTA when the cells reached approximately 80%. Cell concentration in the resulting suspension was assessed using the trypan blue assay, which enables direct discrimination between viable (unstained) and non-viable (blue) cells.
(§2) T3 and HaCaT cells (1 × 10^5 cells/mL), along with A431, HeLa, and MCF-7 cells (5 × 10^4 cells/mL), were cultured at defined seeding densities in the 60 central wells of a 96-well plate. Cells were first incubated for 24 h under standard incubator conditions (5% CO2, 37 °C). After this period, the culture medium was removed, and the cells were incubated for an additional 24 h with their corresponding compound solutions (1 mg/mL) previously diluted in a minimum amount of DMF (dimethylformamide) and then in DMEM medium supplemented with 5% FBS (100 µL) at the required concentration range (20 to 250 µg/mL). Cell viability following exposure to the lactam derivatives was evaluated using two complementary assays: NRU and MTT.
(§3) The neutral red uptake (NRU) assay is based on the accumulation of dye in the lysosomes of viable cells. After the cells were incubated for 24 h with the corresponding systems, the medium was removed, and the solutions were incubated with the NR dye (Sigma-Aldrich, St. Louis, MO, USA) solution (50 µg/mL) dissolved in the medium, without FBS and without phenol red (Lonza, Verviers, Belgium), for 3 h. Cells were then washed with sterile PBS, followed by the addition of 100 µL of a solution containing 50% absolute ethanol and 1% acetic acid in distilled water to extract the dye. To promote the total dissolution of the dye, plates were placed in a microtiter-plate shaker for 5 min at room temperature. The absorbance of the resulting solutions was measured at 550 nm (Bio-Rad 550 microplate reader, Bio-Rad California, Hercules, CA, USA). Finally, the effect of each treatment was calculated as the percentage of dye uptake by viable cells relative to the control cells (cells without any treatment). Finally, the effect of each treatment was calculated as the percentage of dye retained by viable cells compared with untreated control cells.
(§4) The half-maximal inhibitory concentration (IC50) values for the different formulations, across cell lines and experimental endpoints, were obtained by fitting the concentration-dependent viability curves. […] These findings reflect the very low cytotoxicity of the compounds toward these cell lines.

Hemolysis assay = assay type: cell-based; settings: human, human erythrocyte suspension, pH 7.4, 10 and 80 µg/mL
Description: Human blood samples were obtained from the Banc de Sang i Teixits de Barcelona (Barcelona, Spain) under the Catalan Department of Health. Blood was collected in tubes containing the anticoagulant EDTA-K3. Samples were centrifuged at 3000 rpm and 4 °C for 10 min (Megafuge 2.0 R, Heraeus Instruments, Hanau, Germany) to promote sedimentation, after which plasma was carefully eliminated using a Pasteur pipette. The remaining pellet was washed with PBS (pH 7.4) three times to remove residual leukocytes and platelets while concentrating erythrocytes. After the final wash, the erythrocyte pellet was resuspended in PBS (pH 7.4) at a 1:1 ratio to achieve a final erythrocyte concentration of 8 × 10^9 cells/mL.
The hemolysis assay is used to evaluate the ability of the tested compounds to disrupt erythrocyte membranes. Stock solutions of each compound were prepared in PBS (pH 7.4) at a concentration of 1 mg/mL. Volumes ranging from 10 to 80 μL were transferred into polystyrene tubes, followed by the addition of 25 µL of the erythrocyte suspension, bringing the total volume to 1 mL. The samples were incubated at room temperature under gentle rotation and subsequently centrifuged at 10,000 rpm for 5 min. The absorbance of the resulting supernatants at 540 nm (Shimadzu UV-160A, Shimadzu, Duisburg, Germany) was measured and compared with that of the positive control (erythrocytes hemolyzed with distilled water) and the negative control (erythrocytes suspension in PBS, pH 7.4).
The degree of hemolysis was determined using the following equation:Hemolysis (%) = 100 × (Abs − Abs0)/(Abs100 − Abs0) where Abs, Abs0 and Abs100 are the absorbance of the test samples, of the suspension treated with isotonic phosphate–buffered saline (PBS) and of the suspension of complete hemolysis treated with distilled water, respectively.

A431 cells [2] = experiment: MTT cell viability assay, A431; assay type: cell-based; settings: Homo sapiens, A-431, 24 h
Description: as §1, §2
Only living cells can reduce the yellow tetrazolium salt 3-(4,5-dimethyl-2-thiazolyl)-2,5-diphenyltetrazolium bromide (MTT) to insoluble purple formazan crystals. After a 24 h incubation of the cells with their corresponding NPs, the medium was removed and 100 µL of MTT (Sigma-Aldrich, St. Louis, MO, USA) in PBS (5 mg/mL) diluted 1:10 in culture medium without phenol red and without FBS (Lonza, Verviers, Belgium) was added to the cells. After 3 h of incubation, the medium was removed. Thereafter, 100 µL of DMSO (Sigma-Aldrich, St. Louis, MO, USA) was added to each well to dissolve the purple formazan crystals. Agitation and absorbance measurements of the extracted solution were carried out under the same conditions described for the NRU assay. The effect of each treatment was then expressed as the percentage of tetrazolium salt reduction by viable cells relative to untreated controls.
as §4

MCF-7 cells = experiment: NRU cell viability assay, MCF-7; assay type: cell-based, human; settings: Homo sapiens, MCF7; MCF-7, NRU, 24 h
Description: as §1, §2, §3, §4

3T3 cells = experiment: NRU cell viability assay, 3T3; assay type: cell-based; settings: Mus musculus, NIH3T3; 3T3, NRU, 24 h
Description: as §1, §2
as §3, with “[…]” for “control cells.”

Row | SMILES | IC50 (A431 cells [1]) [mg/L] | hemolysis (Hemolysis assay) [%] | IC50 (A431 cells [2]) [mg/L] | IC50 (MCF-7 cells) [mg/L] | IC50 (3T3 cells) [mg/L]
1 | C[C@H](c1ccccc1)N1C[C@H](C)C(Cl)(Cl)C1=O [Compound 4] | 108 (≈ 396 µM) | < 2 | 164 (≈ 604 µM) | > 250 | 173 (≈ 634 µM)
2 | C[C@@H]1CN([C@@H](C)c2ccccc2)C(=O)C1(Cl)Cl [Compound 3, (R)-3,3-dichloro-4-methyl-1-((S)-1-phenylethyl)pyrrolidin-2-one] | 60.2 (≈ 221 µM) | < 2 | 56 (≈ 206 µM) | 60 (≈ 220 µM) | 65 (≈ 239 µM)
